From ChEMBL document CHEMBL3763076, “Novel 2-phenyl-5-[(E)-2-(thiophen-2-yl)ethenyl]-1,3,4-oxadiazole and 3-phenyl-5-[(E)-2-(thiophen-2-yl)ethenyl]-1,2,4-oxadiazole derivatives as dengue virus inhibitors targeting NS5 polymerase” (Eur J Med Chem, 2016)

Tests used:
[1] = Cytotoxicity against African green monkey Vero E6 cells assessed as reduction in cell viability treated for 3 days measured on day 4 by cell titer-blue fluorescent assay; assay type: cell-based; details: chlorocebus sabaeus
dengue virus type 1 [2] = assay: Antiviral activity against clinical isolates of Dengue virus 1 Indonesia JKT 1186 TVP 949 infected in African green monkey Vero E6 cells assessed as reduction in viral RNA after 4 days by qRT-PCR method; assay type: functional, organism-based; details: Indonesia JKT 1186 TVP 949, Vero, 96 h
dengue virus type 2 [3] = assay: Antiviral activity against clinical isolates of Dengue virus 2 Martinique H/IMTSSA-MART/98-703 infected in African green monkey Vero E6 cells assessed as reduction in viral RNA after 4 days by qRT-PCR method; assay type: functional, organism-based; details: Martinique H/IMTSSA-MART/98-703, Vero, 96 h
dengue virus type 3 [4] = assay: Antiviral activity against clinical isolates of Dengue virus 3 Bolivia 4025 infected in African green monkey Vero E6 cells assessed as reduction in viral RNA after 4 days by qRT-PCR method; assay type: functional, organism-based; details: Bolivia 4025, Vero, 96 h
dengue virus type 4 [5] = assay: Antiviral activity against clinical isolates of Dengue virus 4 Dakar HD34460 infected in African green monkey Vero E6 cells assessed as reduction in viral RNA after 4 days by qRT-PCR method; assay type: functional, organism-based; details: 96 h
dengue virus type 4 [6] = assay: Antiviral activity against clinical isolates of Dengue virus 4 Martinique 017 infected in African green monkey Vero E6 cells assessed as reduction in viral RNA after 4 days by qRT-PCR method; assay type: functional, organism-based; details: Martinique 017, Vero, 96 h
dengue virus type 1 [7] = assay: Antiviral activity against clinical isolates of Dengue virus 1; assay type: functional, organism-based
dengue virus type 2 [8] = assay: Antiviral activity against clinical isolates of Dengue virus 2; assay type: functional, organism-based
dengue virus type 3 [9] = assay: Antiviral activity against clinical isolates of Dengue virus 3; assay type: functional, organism-based
dengue virus type 4 [10] = assay: Antiviral activity against clinical isolates of Dengue virus 4; assay type: functional, organism-based
[11] = Inhibition of Dengue virus 2 RdRp using homopolymeric uridine RNA as template assessed as reduction in RNA synthesis incubated for 10 mins by picogreen fluorescent assay; set-up: species or system dengue virus type 2

Row | SMILES | IC50 [11] [µM] | other results
1 | C#C[C@@]1(O)[C@H](O)[C@@H](CO)O[C@H]1n1ccc2c(N)ncnc21 |  | CC50 at 72 h [1]: > 100 µM; EC50 (dengue virus type 1 [2]): 860 nM; EC50 (dengue virus type 2 [3]): 820 nM; EC50 (dengue virus type 3 [4]): 120 nM; EC50 (dengue virus type 4 [5]): 80 nM; EC50 (dengue virus type 4 [6]): 30 nM
2 | O=C(/C=C/c1ccc(Br)s1)Nc1ccc(Cl)c(Cl)c1 |  | EC50 (dengue virus type 1 [7]): 40 nM; EC50 (dengue virus type 2 [8]): 40 nM; EC50 (dengue virus type 3 [9]): 40 nM; EC50 (dengue virus type 4 [10]): 40 nM
3 | CN(C)c1ccc(-c2nnc(/C=C/c3ccc(Br)s3)o2)cc1 | 20 | 
4 | COc1ccc(-c2nnc(/C=C/c3ccc(-c4ccccc4)s3)o2)cc1 | 22 | 
5 | C(=C\c1ccc(-c2ccccc2)s1)/c1nnc(-c2ccccc2)o1 | 18.8 | 
6 | FC(F)(F)c1ccc(-c2noc(/C=C/c3ccc(Br)s3)n2)cc1 | 21 | 
7 | O=C(/C=C/c1ccc(-c2ccccc2)s1)Nc1cccc(Cl)c1 |  | EC50 (dengue virus type 1 [7]): 400 nM; EC50 (dengue virus type 2 [8]): 400 nM; EC50 (dengue virus type 3 [9]): 400 nM; EC50 (dengue virus type 4 [10]): 400 nM
8 | Brc1cccc(-c2nnc(/C=C/c3ccc(-c4ccccc4)s3)o2)c1 | 53.9 | 
9 | Fc1ccc(-c2nnc(/C=C/c3ccc(-c4ccccc4)s3)o2)cc1 | 17.4 | 
10 | Fc1cccc(-c2nnc(/C=C/c3ccc(Br)s3)o2)c1 | 16.3 | 
11 | Fc1ccc(-c2nnc(/C=C/c3ccc(Br)s3)o2)cc1 | 16.3 | 
12 | Clc1ccc(-c2nnc(/C=C/c3ccc(-c4ccccc4)s3)o2)cc1Cl | 24.3 | 
13 | O=c1cc(-c2ccc(Oc3c(O)cc4oc(-c5ccc(O)cc5)cc(=O)c4c3O)cc2)oc2cc(O)cc(O)c12 [HINOKIFLAVONE] | 0.45 | 

Second part, led by results:

Row | IC50 [11] [µM] | SMILES | other results
14 | 32.6 | FC(F)(F)Oc1ccc(-c2noc(/C=C/c3ccc(Br)s3)n2)cc1 | 
15 | 1.3 | O=C(/C=C/c1ccc([N+](=O)[O-])s1)Nc1ccc([N+](=O)[O-])cc1O | 
16 | 41.9 | CN(C)c1ccc(-c2nnc(/C=C/c3ccc(-c4ccccc4)s3)o2)cc1 | 
17 | 16.1 | Brc1ccc(/C=C/c2nnc(-c3ccccc3)o2)s1 | 
